Key:
HCT-116 = test: NCI 60 cell panel SRB screen; type: cell-based; conditions: Homo sapiens; for activity at 10 µM: HCT-116, single dose 10 μM, read-out: percent cell growth promotion
MCF7 = test: NCI 60 cell panel SRB screen; type: cell-based; conditions: Homo sapiens; for activity at 10 µM: MCF7, read-out: percent cell growth promotion
A498 = test: NCI 60 cell panel SRB screen; type: cell-based; conditions: Homo sapiens; for activity at 10 µM: A498, single dose 10 μM, read-out: percent cell growth promotion
DU-145 = test: NCI 60 cell panel SRB screen; type: cell-based; conditions: Homo sapiens; for activity at 10 µM: DU-145, single dose 10 μM, read-out: percent cell growth promotion
MDA-MB-435 = test: NCI 60 cell panel SRB screen; type: cell-based; conditions: Homo sapiens; for activity at 10 µM: MDA-MB-435, read-out: percent cell growth promotion
ACHN = test: NCI 60 cell panel SRB screen; type: cell-based; conditions: Homo sapiens; for activity at 10 µM: single dose 10 μM, read-out: percent cell growth promotion
SK-MEL-5 = test: NCI 60 cell panel SRB screen; type: cell-based; conditions: Homo sapiens; for activity at 10 µM: SK-MEL-5, read-out: percent cell growth promotion
SN12C = test: NCI 60 cell panel SRB screen; type: cell-based; conditions: Homo sapiens; for activity at 10 µM: single dose 10 μM, read-out: percent cell growth promotion
UACC-62 = test: NCI 60 cell panel SRB screen; type: cell-based; conditions: for activity at 10 µM: UACC-62, read-out: percent cell growth promotion
SF-295 = test: NCI 60 cell panel SRB screen; type: cell-based; conditions: Homo sapiens; for activity at 10 µM: SF-295, single dose 10 μM, read-out: percent cell growth promotion
full NCI 60 cell panel = test: NCI 60 cell panel SRB screen, whole panel; type: cell-based, human; conditions: for activity at 10 µM: mean over the panel, single dose 10 μM, read-out: Mean percent cell growth promotion
Source text: Aiming to evaluate the general antitumour activity of the synthesised phthalazines, the structures of the final compounds were submitted to National Cancer Institute “NCI” (www.dtp.nci.nih.gov), Bethesda, Maryland, USA. In vitro NCI anticancer screening involves two-stage process, the first stage started with the evaluation of the selected candidates against the full NCI 60 cell lines panel representing leukaemia, non-small cell lung cancer, melanoma, colon, CNS, breast, ovarian, renal and prostate cancers at a single dose of 10 µM. NCI selection is based on degree of structure variation and application of computer modelling techniques to prioritise compounds based on their ability to add diversity to the NCI small molecule compound collection.
Eight compounds (6b, 6e, 7b, 13a, 13c, 16a, 16d and 17a) were selected by NCI for further 5 log dose screening against full NCI 60 cell panel. All the 60 cell lines, representing nine tumour subpanels (leukaemia, non-small cell lung cancer, colon cancer, CNS cancer, prostate cancer, melanoma, ovarian cancer, renal cancer and breast cancer) which were incubated at five different concentrations (0.01, 0.1, 1, 10 and 100 µM) of each of the test compounds. The outcomes were used to create log concentration vs % growth inhibition curves, then three response parameters (GI50, TGI and LC50) were calculated for each cell line, (Tables S4 and S5 in Supplementary material).
The human tumor cell lines of the cancer-screening panel were grown in RPMI 1640 medium containing 5% fetal bovine serum and […] L-glutamine. For a typical screening experiment, cells are inoculated into 96 well microtiter plates in 100 ml at plating densities ranging from 5000 to 40,000 cells/well depending on the doubling time of individual cell lines. After cell inoculation, the microtiter plates are incubated at 37 °C, 5% CO2, 95% air and 100%
relative humidity for 24 h prior to addition of experimental drugs. After 24 h, two plates of each cell line are fixed in situ with TCA, to represent a measurement of the cell population for each cell line at the time of drug addition (Tz). Experimental drugs are dissolved in dimethyl sulfoxide at 400-fold the desired final maximum test concentration and stored frozen prior to use. At the time of drug addition, an aliquot of frozen concentrate is thawed and diluted to twice the desired final maximum test concentration with complete medium containing […] Gentamicin. Additional four, 10-fold or ½log serial dilutions are made to provide a total of five drug concentrations plus control. Aliquots of […] of these different drug dilutions are added to the appropriate microtiter wells already containing 100 ml of medium, resulting in the required final drug concentrations. Following drug addition, the plates are incubated for an additional 48 h at 37 °C, 5% CO2, 95% air, and 100% relative humidity. For adherent cells, the assay is terminated by the addition of cold TCA. Cells are fixed in situ by the gentle addition of […] of cold 50% (w/v) TCA (final concentration,10% TCA) and incubated for 60 min at 4 °C. The supernatant is discarded, and the plates are washed five times with tap water and air dried. Sulforhodamine B (SRB) solution (100 ml) at 0.4% (w/v) in 1% acetic acid is added to each well, and plates are incubated for 10 min at room temperature. After staining, unbound dye is removed by washing five times with 1% acetic acid and the plates are air dried. Bound stain is subsequently dissolved with 10 μM trizma base, and the absorbance is read on an automated plate reader at a wavelength of 515 nm. For suspension cells, the methodology is the same except that the assay is terminated by fixing settled cells at the bottom of the wells by gently adding […] of 80% TCA (final concentration, 16% TCA). […]

HOP-62 = test: NCI 60 cell panel SRB screen; type: cell-based; conditions: Homo sapiens; for activity at 10 µM: HOP-62, single dose 10 μM, read-out: percent cell growth promotion
SNB-19 = test: NCI 60 cell panel SRB screen; type: cell-based; conditions: Homo sapiens; for activity at 10 µM: SNB-19, single dose 10 μM, read-out: percent cell growth promotion
HCT-15 = test: NCI 60 cell panel SRB screen; type: cell-based; conditions: Homo sapiens; for activity at 10 µM: HCT-15, single dose 10 μM, read-out: percent cell growth promotion
CAKI-1 = test: NCI 60 cell panel SRB screen; type: cell-based, human; conditions: Homo sapiens; CAKI-1, single dose 10 μM; read-out: percent cell growth promotion
MDA-MB 231/ATCC = test: NCI 60 cell panel SRB screen; type: cell-based; conditions: Homo sapiens; for activity at 10 µM: MDA-MB-231, read-out: percent cell growth promotion
HS 578T = test: NCI 60 cell panel SRB screen; type: cell-based; conditions: Homo sapiens; for activity at 10 µM: read-out: percent cell growth promotion
M14 = test: NCI 60 cell panel SRB screen; type: cell-based; conditions: Homo sapiens; for activity at 10 µM: M14, read-out: percent cell growth promotion
U251 = test: NCI 60 cell panel SRB screen; type: cell-based; conditions: Homo sapiens, U-251; for activity at 10 µM: U251, single dose 10 μM, read-out: percent cell growth promotion
[1] = 5 log dose, 48 h, read-out: LC50 (the source's name)

Cc1nnc(Nc2ccc(NC(=O)c3ccc(Cl)cc3)cc2)c2ccccc12 [Compound 5d, 4-Chloro-N-(4–(4-methylphthalazin-1-ylamino)phenyl)benzamide]
activity at 10 µM (HCT-116): 92.2%
activity at 10 µM (MCF7): 84.5%
activity at 10 µM (A498): 88.9%
activity at 10 µM (DU-145): 102%
activity at 10 µM (MDA-MB-435): 102%
activity at 10 µM (ACHN): 111%
activity at 10 µM (SK-MEL-5): 78.7%
activity at 10 µM (SN12C): 91%
activity at 10 µM (UACC-62; Homo sapiens): 95.9%
activity at 10 µM (SF-295): 105%
activity at 10 µM (full NCI 60 cell panel; Homo sapiens, 60 cell): 93%
cell growth inhibition, in words (full NCI 60 cell panel; single dose 10 µM): Neither of the biarylamides (5b, and 5d) nor the piperazines (8a, 8d, 8f, 8g, 8h and 8i) showed any significant cell line growth inhibition
activity at 10 µM (HOP-62): 88.8%
activity at 10 µM (SNB-19): 92%
activity at 10 µM (HCT-15): 101%
activity at 10 µM (CAKI-1): 86.3%
activity at 10 µM (MDA-MB 231/ATCC): 73%
activity at 10 µM (HS 578T; Hs-578T): 89.7%
activity at 10 µM (M14): 97.1%
activity at 10 µM (U251): 81%

Clc1ccc(Nc2nnc(CNc3ccccc3)c3ccccc23)cc1 [Compound 16a, N-(4-Chlorophenyl)-4-((phenylamino)methyl)phthalazin-1-amine]
GI50 (HCT-116; HCT-116, 5 log dose): 1.2 µM
IC (TGI) (HCT-116; HCT-116, 5 log dose): 5.02 µM
LC50 (lethal concentration 50%) (HCT-116; HCT-116, 5 log dose, 48 h): 13.3 µM
activity at 10 µM (HCT-116): 9.94%
IC (TGI) (MCF7; MCF7, read-out: TGI): 11.1 µM
activity at 10 µM (MCF7): 9.2%
CC50 (MCF7; MCF7, 5 log dose, 48 h, read-out: LC50 (the source's name)): > 25 µM
GI50 (A498; A498, 5 log dose): 1.45 µM
IC (TGI) (A498; A498, 5 log dose): 6.6 µM
CC50 (A498; A498, 5 log dose, 48 h, read-out: LC50 (the source's name)): 17.6 µM
activity at 10 µM (A498): 24.7%
GI50 (DU-145; DU-145, 5 log dose): > 25 µM
IC (TGI) (DU-145; DU-145, 5 log dose): > 25 µM
CC50 (DU-145; DU-145, 5 log dose, 48 h, read-out: LC50 (the source's name)): > 25 µM
activity at 10 µM (DU-145): 19%
GI50 (MDA-MB-435; MDA-MB-435): 1.47 µM
IC (TGI) (MDA-MB-435; MDA-MB-435, read-out: TGI): 7.88 µM
activity at 10 µM (MDA-MB-435): 4.17%
CC50 (MDA-MB-435; MDA-MB-435, 5 log dose, 48 h, read-out: LC50 (the source's name)): > 25 µM
GI50 (ACHN; 5 log dose): 3.1 µM
IC (TGI) (ACHN; 5 log dose): > 25 µM
CC50 (ACHN; [1]): > 25 µM
activity at 10 µM (ACHN): 7.07%
GI50 (SK-MEL-5; SK-MEL-5): 2.08 µM
IC (TGI) (SK-MEL-5; SK-MEL-5, read-out: TGI): 5.27 µM
activity at 10 µM (SK-MEL-5): -69.1%
CC50 (SK-MEL-5; SK-MEL-5, 5 log dose, 48 h, read-out: LC50 (the source's name)): 11.8 µM
GI50 (SN12C; 5 log dose): 3.95 µM
IC (TGI) (SN12C; 5 log dose): 18.9 µM
CC50 (SN12C; [1]): > 25 µM
activity at 10 µM (SN12C): 28.9%
GI50 (UACC-62; Homo sapiens, UACC-62): 1.25 µM
activity at 10 µM (UACC-62; Homo sapiens): 8.47%
CC50 (UACC-62; Homo sapiens, UACC-62, 5 log dose, 48 h, read-out: LC50 (the source's name)): 19 µM
TGI (UACC-62; UACC-62, 5 log dose): 5.70 µM
GI50 (SF-295; SF-295, 5 log dose): 2.98 µM
IC (TGI) (SF-295; SF-295, 5 log dose): 8.77 µM
CC50 (SF-295; SF-295, 5 log dose, 48 h, read-out: LC50 (the source's name)): > 25 µM
activity at 10 µM (SF-295): 14.3%
activity at 10 µM (full NCI 60 cell panel; Homo sapiens, 60 cell): 10.7%
inhibition at 10 µM (full NCI 60 cell panel; Homo sapiens, 60 cell, single dose 10 µM, read-out: cell growth inhibition against various cell lines): > 90%
GI50 (HOP-62; HOP-62, 5 log dose): 2.86 µM
IC (TGI) (HOP-62; HOP-62, 5 log dose): 8.84 µM
CC50 (HOP-62; HOP-62, 5 log dose, 48 h, read-out: LC50 (the source's name)): > 25 µM
activity at 10 µM (HOP-62): 27.4%
GI50 (SNB-19; SNB-19, 5 log dose): 4.71 µM
IC (TGI) (SNB-19; SNB-19, 5 log dose): 22.7 µM
CC50 (SNB-19; SNB-19, 5 log dose, 48 h, read-out: LC50 (the source's name)): > 25 µM
activity at 10 µM (SNB-19): 25.9%
GI50 (HCT-15; HCT-15, 5 log dose): 2.99 µM
IC (TGI) (HCT-15; HCT-15, 5 log dose): 9.39 µM
CC50 (HCT-15; HCT-15, 5 log dose, 48 h, read-out: LC50 (the source's name)): > 25 µM
activity at 10 µM (HCT-15): 13.4%
activity at 10 µM (CAKI-1): 28.2%
GI50 (MDA-MB 231/ATCC; MDA-MB-231): 1.95 µM
IC (TGI) (MDA-MB 231/ATCC; MDA-MB-231, read-out: TGI): 8.73 µM
activity at 10 µM (MDA-MB 231/ATCC): 19.9%
CC50 (MDA-MB 231/ATCC; MDA-MB-231, MDA-MDA 231/ATCC, 5 log dose, 48 h, read-out: LC50 (the source's name)): > 25 µM
GI50 (HS 578T; Hs-578T): 2.95 µM
IC (TGI) (HS 578T; Hs-578T, read-out: TGI): 12.9 µM
activity at 10 µM (HS 578T; Hs-578T): 26.6%
CC50 (HS 578T; HS 578T, 5 log dose, 48 h, read-out: LC50 (the source's name)): > 25 µM
GI50 (M14; M14): 1.74 µM
IC (TGI) (M14; M14, read-out: TGI): 6.65 µM
activity at 10 µM (M14): 5.8%
CC50 (M14; M14, 5 log dose, 48 h, read-out: LC50 (the source's name)): 20.6 µM
GI50 (U251; U251, 5 log dose): 3.28 µM
IC (TGI) (U251; U251, 5 log dose): 7.33 µM
CC50 (U251; U251, 5 log dose, 48 h, read-out: LC50 (the source's name)): 16.4 µM
activity at 10 µM (U251): 9.66%

Reference: PMC6691788, “Design and synthesis of phthalazine-based compounds as potent anticancer agents with potential antiangiogenic activity via VEGFR-2 inhibition” (Journal of Enzyme Inhibition and Medicinal Chemistry, 2019)
